The text below walks through data of publication PMC10507043, “Metabolite interactions in the bacterial Calvin cycle and implications for flux regulation” (Communications Biology, 2023).

Format in all cases: biochemical
Experiment [1] has as its target T1, syn-TKT (Synechocystis sp. PCC 6803, UniProt P73282).
T1 construct: gene tktA; recombinant from genomic DNA, pET-28a(+), E. coli BL21, HisTrap purified
T1 sequence (P73282 1-670): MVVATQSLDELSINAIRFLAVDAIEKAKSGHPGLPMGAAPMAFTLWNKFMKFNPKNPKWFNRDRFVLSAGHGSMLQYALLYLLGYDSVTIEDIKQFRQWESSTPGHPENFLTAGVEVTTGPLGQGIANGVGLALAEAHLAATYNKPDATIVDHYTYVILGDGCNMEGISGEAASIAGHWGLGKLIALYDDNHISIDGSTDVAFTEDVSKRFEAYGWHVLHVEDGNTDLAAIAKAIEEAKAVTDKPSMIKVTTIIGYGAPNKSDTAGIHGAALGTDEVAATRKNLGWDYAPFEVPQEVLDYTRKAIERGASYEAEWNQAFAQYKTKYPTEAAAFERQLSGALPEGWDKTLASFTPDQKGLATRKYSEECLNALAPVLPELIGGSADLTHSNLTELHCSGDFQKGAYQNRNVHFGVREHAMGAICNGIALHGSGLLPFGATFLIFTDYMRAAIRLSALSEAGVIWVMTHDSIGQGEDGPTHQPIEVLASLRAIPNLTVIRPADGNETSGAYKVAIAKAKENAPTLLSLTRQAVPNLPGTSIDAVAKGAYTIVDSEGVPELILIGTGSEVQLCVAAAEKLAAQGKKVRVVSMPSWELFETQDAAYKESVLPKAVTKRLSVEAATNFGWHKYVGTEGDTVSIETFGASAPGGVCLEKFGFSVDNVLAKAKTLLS
Kind of experiment: alcohol dehydrogenase-coupled NADH assay, inhibition. The note with it: 1 mM AMP, glycylglycine pH 7.5, thiamine pyrophosphate, Mg2+.

Experiment [2] has as its target T2, cn-TKT (Cupriavidus necator, UniProt P21726).
T2 construct: gene cbbTP; recombinant from genomic DNA, pET-28a(+), E. coli BL21, HisTrap purified
T2 sequence (P21726 1-670): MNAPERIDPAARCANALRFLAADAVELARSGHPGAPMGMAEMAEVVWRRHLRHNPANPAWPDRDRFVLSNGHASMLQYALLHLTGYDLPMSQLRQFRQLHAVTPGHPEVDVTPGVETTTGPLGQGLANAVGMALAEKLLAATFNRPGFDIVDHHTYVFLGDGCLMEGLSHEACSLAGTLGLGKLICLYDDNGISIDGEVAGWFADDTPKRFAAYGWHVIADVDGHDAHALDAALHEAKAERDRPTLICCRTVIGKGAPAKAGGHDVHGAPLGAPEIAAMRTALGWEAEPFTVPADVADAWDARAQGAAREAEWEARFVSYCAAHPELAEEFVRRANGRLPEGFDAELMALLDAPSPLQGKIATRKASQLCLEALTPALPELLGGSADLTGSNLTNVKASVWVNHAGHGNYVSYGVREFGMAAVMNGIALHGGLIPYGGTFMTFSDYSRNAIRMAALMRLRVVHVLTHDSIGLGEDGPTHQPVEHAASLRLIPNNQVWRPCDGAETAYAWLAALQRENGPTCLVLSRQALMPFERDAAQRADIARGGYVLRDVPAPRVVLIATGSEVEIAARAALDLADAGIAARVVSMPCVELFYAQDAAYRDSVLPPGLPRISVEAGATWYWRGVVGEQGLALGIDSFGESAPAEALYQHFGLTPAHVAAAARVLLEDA
In words: alcohol dehydrogenase-coupled NADH consumption at […] nm. The settings on record: 100 mM L-erythrulose, 2 mM thiamine pyrophosphate, 5 mM MgCl2, 100 mM glycylglycine pH 7.5; no added metabolite.

Experiment [3] addresses T1, syn-TKT. Described as above. The note with it: 100 mM L-erythrulose, 2 mM thiamine pyrophosphate, 5 mM MgCl2, 100 mM glycylglycine pH 7.5; no added metabolite.
Experiment [4] deals with T3, syn-F/SBPase (Synechocystis sp. PCC 6803, UniProt P73922, R194H).
T3 construct: gene slr2094; recombinant, codon-optimised, pET-28a(+), E. coli BL21, HisTrap purified; homotetramer
T3 sequence (P73922 whole entry R194H): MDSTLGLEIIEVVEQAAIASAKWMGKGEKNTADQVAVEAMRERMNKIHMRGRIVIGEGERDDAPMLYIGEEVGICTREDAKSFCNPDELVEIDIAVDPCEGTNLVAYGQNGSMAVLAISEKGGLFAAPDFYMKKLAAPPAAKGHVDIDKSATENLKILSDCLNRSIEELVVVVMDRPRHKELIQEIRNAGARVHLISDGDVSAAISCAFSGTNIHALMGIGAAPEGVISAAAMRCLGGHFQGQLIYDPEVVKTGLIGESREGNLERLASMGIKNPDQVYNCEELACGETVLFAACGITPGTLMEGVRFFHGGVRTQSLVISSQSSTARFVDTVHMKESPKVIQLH
Kind of experiment: Malachite Green phosphate release, activation. The settings on record: substrate fructose-1,6-bisphosphate; AMP-insensitive variant.

Experiment [5] addresses T3, syn-F/SBPase. In words: Malachite Green phosphate release, inhibition. The settings on record: substrate fructose-1,6-bisphosphate; AMP-insensitive variant.
Experiment [6] deals with T2, cn-TKT. Kind of experiment: alcohol dehydrogenase-coupled NADH assay, inhibition. The note with it: 1 mM dihydroxyacetone phosphate, glycylglycine pH 7.5, thiamine pyrophosphate, Mg2+.
Experiment [7] has as its target T4, cn-F/SBPase (Cupriavidus necator, UniProt P19912).
T4 construct: gene fbp3; recombinant, codon-optimised, pET-28a(+), E. coli BL21, HisTrap purified
T4 sequence (P19912 1-364): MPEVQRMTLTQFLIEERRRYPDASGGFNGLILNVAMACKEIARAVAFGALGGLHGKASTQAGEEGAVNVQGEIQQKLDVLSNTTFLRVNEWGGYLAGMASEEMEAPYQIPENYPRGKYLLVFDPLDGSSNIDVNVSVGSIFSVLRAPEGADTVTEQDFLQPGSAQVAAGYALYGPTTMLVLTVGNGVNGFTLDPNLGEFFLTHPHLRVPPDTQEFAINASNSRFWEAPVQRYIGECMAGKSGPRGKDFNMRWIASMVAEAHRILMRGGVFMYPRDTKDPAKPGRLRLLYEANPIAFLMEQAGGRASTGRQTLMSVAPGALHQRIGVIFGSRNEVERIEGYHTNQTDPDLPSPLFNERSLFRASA
In words: Malachite Green phosphate release, Hill fit. The settings on record: 50 mM Tris-HCl, 15 mM MgCl2, 10 mM DTT, 30 °C; no added metabolite.

For experiment [8], the target named is T5, syn-F/SBPase (Synechocystis sp. PCC 6803, UniProt P73922).
T5 construct: gene slr2094; recombinant, codon-optimised, pET-28a(+), E. coli BL21, HisTrap purified; homotetramer
T5 sequence (P73922 1-345): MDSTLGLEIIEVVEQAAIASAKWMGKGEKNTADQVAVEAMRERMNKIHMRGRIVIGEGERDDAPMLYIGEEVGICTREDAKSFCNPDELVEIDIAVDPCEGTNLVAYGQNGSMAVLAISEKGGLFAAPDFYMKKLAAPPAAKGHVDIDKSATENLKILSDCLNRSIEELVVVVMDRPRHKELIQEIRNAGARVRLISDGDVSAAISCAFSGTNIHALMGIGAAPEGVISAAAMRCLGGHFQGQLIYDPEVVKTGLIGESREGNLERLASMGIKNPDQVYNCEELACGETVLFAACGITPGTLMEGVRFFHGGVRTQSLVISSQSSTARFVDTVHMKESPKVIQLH
In words: Malachite Green phosphate release, Hill fit. The note with it: 50 mM Tris-HCl, 15 mM MgCl2, 10 mM DTT, 30 °C; no added metabolite.

Molecules are shown by their SMILES.

Take `Nc1ncnc2c1ncn2[C@@H]1O[C@H](COP(=O)(O)O)[C@@H](O)[C@H]1O` [AMP]: the “alcohol dehydrogenase-coupled NADH assay, inhibition” value in experiment [1] is “AMP and dihydroxyacetone phosphate, which specifically reduced the activity of syn-TKT and cn-TKT, respectively”.
Turning to `O=P(O)(O)OC[C@H]1OC(O)[C@H](O)[C@@H]1O` (stereo partly drawn) [D-ribose-5-phosphate], the KM result in experiment [2] is “conversion of D-ribose-5-phosphate and L-erythrulose to sedoheptulose-7-phosphate and glycolaldehyde was measured”; in experiment [3], “conversion of D-ribose-5-phosphate and L-erythrulose to sedoheptulose-7-phosphate and glycolaldehyde was measured”.
On to `O=C[C@H](O)COP(=O)(O)O` [GAP, glyceraldehyde-3-phosphate], for which the “Malachite Green phosphate release, activation” value in experiment [4] was “This mutant lost AMP sensitivity but retained sensitivity to both GAP activation and NADPH inhibition”.
For the compound `NC(=O)C1=CN([C@@H]2O[C@H](COP(=O)(O)OP(=O)(O)OC[C@H]3O[C@@H](n4cnc5c(N)ncnc54)[C@H](OP(=O)(O)O)[C@@H]3O)[C@@H](O)[C@H]2O)C=CC1` [NADPH], in experiment [5], the “Malachite Green phosphate release, inhibition” value is “This mutant lost AMP sensitivity but retained sensitivity to both GAP activation and NADPH inhibition”.
Consider `O=C(CO)COP(=O)(O)O` [dihydroxyacetone phosphate], for which the “alcohol dehydrogenase-coupled NADH assay, inhibition” value in experiment [6] is “AMP and dihydroxyacetone phosphate, which specifically reduced the activity of syn-TKT and cn-TKT, respectively”.
With `O=P(O)(O)OC[C@H]1OC(O)(COP(=O)(O)O)[C@@H](O)[C@@H]1O` (some centres unmarked) [fructose-1,6-bisphosphate], the KM entry in experiment [7] was “Initial rates of syn-F/SBPase and cn-F/SBPase were measured at different substrate concentrations”; in experiment [8], “activity on the substrate fructose-1,6-bisphosphate was screened using Malachite Green (MG) detection”.
